Data taken from ChEMBL document CHEMBL1131670, “N-hydroxyurea and hydroxamic acid inhibitors of cyclooxygenase and 5-lipoxygenase” (Bioorg Med Chem Lett, 1999).
Each block holds one compound with its values, some of them ahead of it.

Assays:
[1] = target: Cyclooxygenase (Rattus norvegicus) (UniProt P35355+Q63921); test: Inhibitory activity against Cyclooxygenase (COX) using broken rat […] leukemia cells (RBL-1) at 10 uM; assay type: cell-based
[2] = target: T1, Polyunsaturated fatty acid 5-lipoxygenase (Rattus norvegicus) (UniProt P12527); test: Inhibitory activity against 5-lipoxygenase (5-LO) using broken rat […] leukemia cells (RBL-1) at 10 uM; assay type: cell-based
T1 sequence (whole entry): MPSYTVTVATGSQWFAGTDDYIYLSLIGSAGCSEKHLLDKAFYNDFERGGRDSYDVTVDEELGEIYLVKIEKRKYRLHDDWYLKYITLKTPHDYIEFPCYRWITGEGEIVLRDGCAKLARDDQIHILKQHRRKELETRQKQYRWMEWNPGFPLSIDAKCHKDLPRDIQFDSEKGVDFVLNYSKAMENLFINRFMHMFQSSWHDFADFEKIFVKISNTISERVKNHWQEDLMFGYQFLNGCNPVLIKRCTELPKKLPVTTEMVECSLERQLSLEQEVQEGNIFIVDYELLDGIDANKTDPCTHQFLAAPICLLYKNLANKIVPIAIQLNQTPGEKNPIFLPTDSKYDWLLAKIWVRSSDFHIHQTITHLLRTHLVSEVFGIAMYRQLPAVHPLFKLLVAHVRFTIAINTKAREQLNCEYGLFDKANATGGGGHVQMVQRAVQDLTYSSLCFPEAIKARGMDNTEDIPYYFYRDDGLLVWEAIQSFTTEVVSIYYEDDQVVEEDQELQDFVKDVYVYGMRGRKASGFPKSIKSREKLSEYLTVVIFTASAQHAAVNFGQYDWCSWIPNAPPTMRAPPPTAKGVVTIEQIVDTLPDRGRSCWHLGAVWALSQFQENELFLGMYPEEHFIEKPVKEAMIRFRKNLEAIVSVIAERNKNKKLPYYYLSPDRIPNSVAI

[3] = target: T2, Prostaglandin G/H synthase 1 (Ovis aries) (UniProt P05979); test: Inhibitory activity against Cyclooxygenase using sheep seminal vesicle (SSV) enzyme (COX-1) Inhibition at 10 uM; assay type: tissue-based
T2 sequence (whole entry): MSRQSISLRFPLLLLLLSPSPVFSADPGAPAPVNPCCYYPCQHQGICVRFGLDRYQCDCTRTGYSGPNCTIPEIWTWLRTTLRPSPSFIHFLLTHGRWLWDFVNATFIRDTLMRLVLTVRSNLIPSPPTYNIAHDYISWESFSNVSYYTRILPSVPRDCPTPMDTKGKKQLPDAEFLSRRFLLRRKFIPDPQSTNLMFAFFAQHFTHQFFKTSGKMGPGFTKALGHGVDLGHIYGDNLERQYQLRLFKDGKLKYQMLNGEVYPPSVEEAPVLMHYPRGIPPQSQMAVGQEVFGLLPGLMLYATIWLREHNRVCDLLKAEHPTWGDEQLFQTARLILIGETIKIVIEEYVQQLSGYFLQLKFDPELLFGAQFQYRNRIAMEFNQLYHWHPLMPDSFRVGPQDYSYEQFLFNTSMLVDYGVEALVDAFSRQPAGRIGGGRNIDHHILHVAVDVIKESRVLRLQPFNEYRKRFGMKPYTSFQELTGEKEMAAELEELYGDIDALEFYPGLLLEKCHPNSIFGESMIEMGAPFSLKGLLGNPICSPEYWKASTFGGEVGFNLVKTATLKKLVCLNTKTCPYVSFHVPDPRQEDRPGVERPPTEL

[4] = target: T2, Prostaglandin G/H synthase 1 (Ovis aries); test: Inhibitory activity against Cyclooxygenase using sheep seminal vesicle (SSV) enzyme (COX-1)at 10 uM; assay type: tissue-based
[5] = target: T1, Polyunsaturated fatty acid 5-lipoxygenase (Rattus norvegicus); test: Inhibitory activity against 5-lipoxygenase (5-LO) using broken rat […] leukemia cells (RBL-1)at 10 uM; assay type: cell-based
[6] = target: T3, Cyclooxygenase (Rattus norvegicus, UniProt P35355+Q63921); test: Inhibitory activity against Cyclooxygenase (COX) using broken rat […] leukemia cells (RBL-1); assay type: cell-based
T3 sequence (P35355 whole entry): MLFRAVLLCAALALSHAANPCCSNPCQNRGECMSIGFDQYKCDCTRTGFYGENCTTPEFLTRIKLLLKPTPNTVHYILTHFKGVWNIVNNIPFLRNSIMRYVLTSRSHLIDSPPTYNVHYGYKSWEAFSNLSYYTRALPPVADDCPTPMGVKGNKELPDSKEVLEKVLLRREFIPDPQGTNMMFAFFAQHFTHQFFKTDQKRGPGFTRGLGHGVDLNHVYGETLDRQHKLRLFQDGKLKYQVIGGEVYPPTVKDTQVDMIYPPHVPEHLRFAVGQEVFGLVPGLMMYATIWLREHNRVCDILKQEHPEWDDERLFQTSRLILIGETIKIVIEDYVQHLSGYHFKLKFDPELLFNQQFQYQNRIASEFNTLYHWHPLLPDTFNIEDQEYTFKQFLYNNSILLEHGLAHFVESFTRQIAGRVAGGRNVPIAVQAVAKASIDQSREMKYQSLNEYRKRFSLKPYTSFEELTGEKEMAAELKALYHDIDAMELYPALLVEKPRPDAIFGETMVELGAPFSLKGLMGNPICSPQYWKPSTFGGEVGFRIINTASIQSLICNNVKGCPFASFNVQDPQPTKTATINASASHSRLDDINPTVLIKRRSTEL
T3 sequence (Q63921 whole entry): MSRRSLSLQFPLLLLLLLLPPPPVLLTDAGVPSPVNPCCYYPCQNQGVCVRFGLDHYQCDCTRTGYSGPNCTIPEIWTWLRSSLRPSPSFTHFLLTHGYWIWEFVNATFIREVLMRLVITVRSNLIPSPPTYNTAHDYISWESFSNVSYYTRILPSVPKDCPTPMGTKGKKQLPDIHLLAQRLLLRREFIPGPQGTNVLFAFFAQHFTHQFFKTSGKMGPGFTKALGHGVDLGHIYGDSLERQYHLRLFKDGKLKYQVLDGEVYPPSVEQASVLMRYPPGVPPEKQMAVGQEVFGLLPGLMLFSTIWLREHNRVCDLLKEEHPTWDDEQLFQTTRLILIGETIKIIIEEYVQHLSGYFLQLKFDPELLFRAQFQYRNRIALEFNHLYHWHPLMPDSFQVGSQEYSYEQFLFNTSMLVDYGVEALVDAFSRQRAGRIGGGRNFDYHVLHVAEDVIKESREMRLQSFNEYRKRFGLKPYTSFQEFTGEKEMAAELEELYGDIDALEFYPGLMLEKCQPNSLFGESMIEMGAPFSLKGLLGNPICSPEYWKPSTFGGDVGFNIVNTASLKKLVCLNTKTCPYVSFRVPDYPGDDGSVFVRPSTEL

[7] = target: T3, Cyclooxygenase; test: Inhibitory activity against cyclooxygenase (COX) in intact rat […] leukemia cells (RBL-1); assay type: cell-based
[8] = target: T4, Cyclooxygenase (Homo sapiens) (UniProt P35354+P23219); test: Inhibitory activity against cyclooxygenase (COX) in after oral administration of 5 mg/kg at 4 hr to canine; assay type: organism-based; parameters: dose 5 mg/kg; details: Canis lupus familiaris; target entry is the homologue from another species; at 5 mg/kg
[9] = target: T5, Polyunsaturated fatty acid 5-lipoxygenase (Homo sapiens) (UniProt P09917); test: Inhibitory activity against 5-lipoxygenase (5-LO) in after oral administration of 5 mg/kg at 24 hr r to canine; assay type: organism-based; parameters: dose 5 mg/kg; details: Canis lupus familiaris; target entry is the homologue from another species; at 5 mg/kg
T5 sequence (whole entry): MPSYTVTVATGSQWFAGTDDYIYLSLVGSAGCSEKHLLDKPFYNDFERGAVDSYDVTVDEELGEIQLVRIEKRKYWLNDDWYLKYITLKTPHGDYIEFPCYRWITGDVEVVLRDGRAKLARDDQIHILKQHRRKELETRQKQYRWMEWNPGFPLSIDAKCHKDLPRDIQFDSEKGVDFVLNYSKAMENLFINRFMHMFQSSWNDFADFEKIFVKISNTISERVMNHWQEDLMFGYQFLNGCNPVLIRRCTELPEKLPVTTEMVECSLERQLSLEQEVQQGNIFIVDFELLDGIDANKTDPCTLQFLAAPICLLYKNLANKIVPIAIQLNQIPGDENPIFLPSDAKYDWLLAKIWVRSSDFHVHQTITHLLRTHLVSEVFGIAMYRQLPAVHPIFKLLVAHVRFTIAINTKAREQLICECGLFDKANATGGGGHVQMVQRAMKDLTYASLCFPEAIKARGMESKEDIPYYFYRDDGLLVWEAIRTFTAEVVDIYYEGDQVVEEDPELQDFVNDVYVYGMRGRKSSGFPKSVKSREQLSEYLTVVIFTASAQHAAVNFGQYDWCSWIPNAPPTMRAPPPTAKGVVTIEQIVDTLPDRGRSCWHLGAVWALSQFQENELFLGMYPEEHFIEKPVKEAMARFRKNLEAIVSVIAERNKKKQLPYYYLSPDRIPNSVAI

[10] = target: T4, Cyclooxygenase (Homo sapiens); test: Inhibitory activity against cyclooxygenase (COX) in after oral administration of 5 mg/kg at 2 hr to canine; assay type: organism-based; parameters: dose 5 mg/kg; details: Canis lupus familiaris; target entry is the homologue from another species; at 5 mg/kg
[11] = target: T5, Polyunsaturated fatty acid 5-lipoxygenase (Homo sapiens); test: Inhibitory activity against 5-lipoxygenase (5-LO) in after oral administration of 5 mg/kg at 8 hr to canine; assay type: organism-based; parameters: dose 5 mg/kg; details: Canis lupus familiaris; target entry is the homologue from another species; at 5 mg/kg
[12] = target: T5, Polyunsaturated fatty acid 5-lipoxygenase (Homo sapiens); test: Inhibitory activity against 5-lipoxygenase (5-LO) in after oral administration of 5 mg/kg at 2 hr to canine; assay type: organism-based; parameters: dose 5 mg/kg; details: Canis lupus familiaris; target entry is the homologue from another species; at 5 mg/kg
[13] = target: T4, Cyclooxygenase (Homo sapiens); test: Inhibitory activity against cyclooxygenase (COX) in after oral administration of 5 mg/kg at 24 hr r; assay type: organism-based; parameters: dose 5 mg/kg; details: Canis lupus familiaris; at 5 mg/kg
[14] = target: T5, Polyunsaturated fatty acid 5-lipoxygenase (Homo sapiens); test: Inhibitory activity against 5-lipoxygenase (5-LO) in after oral administration of 5 mg/kg at 4 hr to canine; assay type: organism-based; parameters: dose 5 mg/kg; details: Canis lupus familiaris; target entry is the homologue from another species; at 5 mg/kg
[15] = target: T4, Cyclooxygenase (Homo sapiens); test: Inhibitory activity against cyclooxygenase (COX) in after oral administration of 5 mg/kg at 8 hr to canine; assay type: organism-based; parameters: dose 5 mg/kg; details: Canis lupus familiaris; target entry is the homologue from another species; at 5 mg/kg
[16] = target: T6, Polyunsaturated fatty acid 5-lipoxygenase (Rattus norvegicus, UniProt P12527); test: Inhibitory activity against 5-lipoxygenase (5-LO) using broken rat […] leukemia cells (RBL-1); assay type: cell-based
T6 sequence (P12527 whole entry): T1 sequence (whole entry)

inhibition [1]: 0%
inhibition [2]: 79%
inhibition [3]: 5%
Compound: CNC(=O)N(O)C(C)C#Cc1cc(-c2ccc(Cl)cc2)n(-c2ccc(OC)cc2)n1 (stereo not drawn)

inhibition [4]: 44%
inhibition [5]: 76%
Compound: COc1ccc(-n2nc(C#CC(C)N(O)C(=O)N3CCCCC3)cc2-c2ccc(Cl)cc2)cc1 (stereo not drawn)

IC50 [6]: 0.31 µM
IC50 [7]: 12.1 µM
inhibition [8]: 76%
inhibition [9]: 10%
inhibition [10]: 82%
inhibition [11]: 15%
inhibition [12]: 53%
inhibition [13]: 11%
inhibition [14]: 32%
inhibition [15]: 46%
Compound: COc1ccc(-n2nc(C#CCN(O)C(N)=O)cc2-c2ccc(C)cc2)cc1

IC50 [6]: 4.2 µM
IC50 [7]: 2.85 µM
IC50 [16]: 1.7 µM
Compound: COc1ccc(-n2nc(CCC(=O)N(C)O)cc2-c2ccc(Cl)cc2)cc1 [TEPOXALIN]
